According to PubChem BioAssay AID651686 (The Scripps Research Institute Molecular Screening Center, 2012):
Activity calls are given as the source filed them. How the calls were made is not given here.

What follows are compounds tested on OPRD1 counterscreen cells, luminescence, activation (assay: OPRD1 cell luminescence activation counter-screen – dose response, counter-screen for OPRM1-OPRD1 heterodimer activator project, late-stage follow-up (AID 651686)).
`CCOC(=O)C1(CCc2ccccc2)CCN(Cc2ccccc2C)CC1` was tested, and the EC50 was > 40 µM (inactive).
`CCOC(=O)C1(CCc2ccccc2)CCN(Cc2ccc(OC(C)C)c(C#N)c2)CC1` was tested, and the EC50 was > 40 µM (inactive).
In the case of `CCOC(=O)C1(Cc2ccccc2)CCN(Cc2cccn2-c2nccs2)CC1`, the EC50 is reported as > 40 µM (inactive).
`CCOC(=O)C1(CCCc2ccccc2)CCN(Cc2cnn(C)c2)CC1` was tested, and the EC50 was > 40 µM (inactive).
With `CCOC(=O)C1(Cc2ccccc2)CCN(Cc2cccn2-c2cccnc2)CC1` the EC50 was > 40 µM (inactive).
For `CCOC(=O)C1(CCc2ccccc2)CCN(Cc2cc(C)cc(C)c2)CC1`, the EC50 was > 40 µM (inactive).
In the case of `CCOC(=O)C1(CCOc2ccccc2)CCN(Cc2cccn2-c2cccnc2)CC1`, the EC50 is reported as > 40 µM (inactive).
In the case of `CCOC(=O)C1(CC2CCCCO2)CCN(Cc2c(C)cc(C)cc2-n2cccn2)CC1` (stereo unspecified), the EC50 is reported as > 40 µM (inactive).
`CCOC(=O)C1(CCc2ccccc2)CCN(Cc2ccc(NC(C)=O)cc2)CC1` showed an EC50 of 1.1 µM.
For `OCC1(CCc2ccccc2)CCN(Cc2cc(F)ccc2-n2cccn2)CC1`, the EC50 was > 40 µM (inactive).
In the case of `CCOC(=O)C1(CCOc2ccccc2)CCN(Cc2ccc(O)c(OC)c2)CC1`, the EC50 is reported as > 40 µM (inactive).
